These results are taken from patent publication US20250228239A1, “MOLECULES HAVING PESTICIDAL UTILITY, AND INTERMEDIATES, COMPOSITIONS, AND PROCESSES, RELATED THERETO” (priority 2024, published 2025).

Test [1] concerns Beet Armyworm (Spodoptera exigua, LAPHEG). The experiment in a line: Bioassays on Beet Armyworm (BAW), 128-well diet tray assay. The test is classed as in vivo. The note with it: Spodoptera exigua, read-out: BAW. The method, then:
(§1) Certain molecules disclosed in this document were tested against BAW and CL using procedures described in the following examples. In the reporting of the results, the “BAW & CL Rating Table” was used (See Table Section).
Bioassays on BAW were conducted using a 128-well diet tray assay. One to five second instar BAW larvae were placed in each well (3 mL) of the diet tray that had been previously filled with 1 mL of artificial diet to which 50 μg/cm^2 of the test molecule (dissolved in 50 μL of 90:10 acetone-water mixture) had been applied (to each of eight wells) and then allowed to dry. Trays were covered with a clear self-adhesive cover, vented to allow gas exchange, and held at 25° C., 14:10 light-dark for five to seven days. Percent mortality was recorded for the larvae in each well; activity in the eight wells was then averaged. The results are indicated in the table entitled “Table ABC: Biological Results” (See Table Section).

Test [2] deals with Cabbage Looper (Trichoplusia ni, TRIPNI). The test is described as follows: Bioassays on Cabbage Looper (CL), 128-well diet tray assay. The test is classed as in vivo. The note with it: Trichoplusia ni. The protocol:
as §1
Bioassays on CL were conducted using a 128-well diet tray assay. One to five second instar CL larvae were placed in each well (3 mL) of the diet tray that had been previously filled with 1 mL of artificial diet to which 50 μg/cm^2 of the test molecule (dissolved in 50 μL of 90:10 acetone-water mixture) had been applied (to each of eight wells) and then allowed to dry. Trays were covered with a clear self-adhesive cover, vented to allow gas exchange, and held at 25° C., 14:10 light-dark for five to seven days. Percent mortality was recorded for the larvae in each well; activity in the eight wells was then averaged. The results are indicated in the table entitled “Table ABC: Biological Results” (See Table Section).

Setting [3] is: Table ABC: Biological Results, species BAW.
[4] abbreviates: Table ABC: Biological Results, species CL, read-out: CL.
The mark [5] stands for this setting: Cabbage Looper, rating class, read-out: CL.

Structures are written as SMILES. Read-outs that look alike come from different tables or passages of the source.

For `Cc1cc(NC(=O)[C@H]2[C@H](c3ccc(F)c(Cl)c3)C2(Cl)Cl)cc(C(=O)Nc2ccc(F)c(N)c2F)c1F` (relative stereo) [F1151, trans-N-(3-Amino-2,4-difluorophenyl)-5-(2,2-dichloro-3-(3-chloro-4-fluorophenyl)cyclopropane-1-carboxamido)-2-fluoro-3-methylbenzamide], the pest or weed control at 50 µg/cm2 in test [1] (setting [3]) and in test [2] (setting [4]) was 50 to 100% throughout.

Consider `Nc1c(F)ccc(NC(=O)c2cc(NC(=O)[C@H]3[C@@H](c4cc(F)c(Cl)c(C(F)(F)F)c4)C3(Cl)Cl)ccc2Cl)c1F` (relative stereo) [F1168, cis-N-(3-Amino-2,4-difluorophenyl)-2-chloro-5-(2,2-dichloro-3-(4-chloro-3-fluoro-5-(trifluoromethyl)phenyl)cyclopropane-1-carboxamido)benzamide], for which the pest or weed control at 50 µg/cm2 in test [1] (setting [3]) and in test [2] (setting [4]) was 50 to 100% in each case.

Take `CCOC(C)C(=O)N(C)c1c(F)ccc(NC(=O)c2cc(NC(=O)[C@H]3[C@H](c4ccc(Cl)c(Cl)c4)C3(Cl)Cl)ccc2Cl)c1F` (stereo partly drawn) [F1616, 2-Chloro-5-((1R,3R)-2,2-dichloro-3-(3,4-dichlorophenyl)cyclopropane-1-carboxamido)-N-(3-(2-ethoxy-N-methylpropanamido)-2,4-difluorophenyl)benzamide]: the pest or weed control at 50 µg/cm2 in test [1] (Beet Armyworm, rating class) lay within 50 to 100%; in test [2] (setting [5]), 50 to 100%.

For the compound `Nc1cc(F)c(NC(=O)c2cc(NC(=O)[C@H]3[C@H](c4ccc(F)c(Cl)c4)C3(Cl)Cl)ccc2Cl)c(F)c1` [F1030, N-(4-Amino-2,6-difluorophenyl)-2-chloro-5-((1R,3R)-2,2-dichloro-3-(3-chloro-4-fluorophenyl)cyclopropane-1-carboxamido)benzamide], the pest or weed control at 50 µg/cm2 in test [1] (setting [3]) and in test [2] (setting [4]) was 50 to 100% throughout.

For the compound `O=C(Nc1c(F)ccc(NC(=O)C(F)F)c1F)c1cc(NC(=O)[C@H]2[C@H](c3ccc(F)c(C(F)(F)F)c3)C2(Cl)Cl)cc(F)c1F` [F1573, 5-((1R,3R)-2,2-Dichloro-3-(4-fluoro-3-(trifluoromethyl)phenyl)cyclopropane-1-carboxamido)-N-(3-(2,2-difluoroacetamido)-2,6-difluorophenyl)-2,3-difluorobenzamide], the pest or weed control at 50 µg/cm2 in test [1] (Beet Armyworm, rating class) was 50 to 100%; in test [2] (setting [5]) it was 50 to 100%.

With `Cc1cc(NC(=O)[C@H]2[C@H](c3cc(Cl)c(Cl)c(Cl)c3)C2(Cl)Cl)cc(C(=O)Nc2cc(N)c(F)cc2F)c1Cl` [F1477, N-(5-Amino-2,4-difluorophenyl)-2-chloro-5-((1R,3R)-2,2-dichloro-3-(3,4,5-trichlorophenyl)cyclopropane-1-carboxamido)-3-methylbenzamide], the pest or weed control at 50 µg/cm2 lay within 50 to 100% in test [1] (Beet Armyworm, rating class) and 50 to 100% in test [2] (setting [5]).

As to `O=C(CC(F)(F)F)Nc1c(F)ccc(NC(=O)c2cc(NC(=O)[C@H]3[C@H](c4ccc(F)c(C(F)(F)F)c4)C3(Cl)Cl)ccc2Cl)c1F` [F1683, 2-Chloro-5-((1R,3R)-2,2-dichloro-3-(4-fluoro-3-(trifluoromethyl)phenyl)cyclopropane-1-carboxamido)-N-(2,4-difluoro-3-(3,3,3-trifluoropropanamido)phenyl)benzamide], the pest or weed control at 50 µg/cm2 in test [1] (Beet Armyworm, rating class) was in the range of 50 to 100%; in test [2] (setting [5]) it was 50 to 100%.

For the compound `C=CCN(C(=O)c1cc(NC(=O)[C@H]2[C@H](c3cc(Cl)cc(Cl)c3)C2(Cl)Cl)ccc1Cl)c1ccc(F)cc1C#N` (relative stereo) [F1055, trans-N-Allyl-2-chloro-N-(2-cyano-4-fluorophenyl)-5-(2,2-dichloro-3-(3,5-dichlorophenyl)cyclopropane-1-carboxamido)benzamide], the pest or weed control at 50 µg/cm2 in test [1] (setting [3]) and in test [2] (setting [4]) was 50 to 100% each time.

As to `COc1c(F)cc(NC(=O)[C@H]2[C@H](c3ccc(F)c(Cl)c3)C2(Cl)Cl)cc1C(=O)Nc1ccccc1` (relative stereo) [F1213, trans-5-(2,2-Dichloro-3-(3-chloro-4-fluorophenyl)cyclopropane-1-carboxamido)-3-fluoro-2-methoxy-N-phenylbenzamide], the pest or weed control at 50 µg/cm2 in test [2] (setting [4]) lay in the range of 50 to 100%.

In the case of `CC(=O)Oc1c(F)ccc(NC(=O)c2cc(NC(=O)[C@H]3[C@H](c4cc(Cl)cc(Cl)c4)C3(Cl)Cl)ccc2Cl)c1F` (relative stereo) [F1193, trans-3-(2-Chloro-5-(2,2-dichloro-3-(3,5-dichlorophenyl)cyclopropane-1-carboxamido)benzamido)-2,6-difluorophenyl acetate], in test [2] (setting [4]), the pest or weed control at 50 µg/cm2 is 50 to 100%.

For `CC(=O)OCCN(C(=O)OC(C)(C)C)c1ccc(NC(=O)c2cc(NC(=O)[C@H]3[C@H](c4cc(Cl)cc(Cl)c4)C3(Cl)Cl)ccc2Cl)c(C)c1` (relative stereo) [F1129, trans-2-((tert-butoxycarbonyl)(4-(2-chloro-5-(2,2-dichloro-3-(3,5-dichlorophenyl)cyclopropane-1-carboxamido)benzamido)-3-methylphenyl)amino)ethyl acetate], the pest or weed control at 50 µg/cm2 in test [2] (setting [4]) is 50 to 100%.

For the compound `Cc1cc(NC(=O)[C@H]2[C@H](c3ccc(F)c(Cl)c3)C2(Cl)Cl)cc(C(=O)Nc2ccc(F)c(N(C(=O)OC(C)(C)C)C(=O)OC(C)(C)C)c2F)c1F` (relative stereo) [F1138, trans-tert-Butyl-N-tert-butoxycarbonyl-N-[3-[[5-[[2,2-dichloro-3-(3-chloro-4-fluorophenyl)cyclopropanecarbonyl]amino]-2-fluoro-3-methylbenzoyl]amino]-2,6-difluorophenyl]carbamate], the pest or weed control at 50 µg/cm2 in test [1] (setting [3]) is 0 to 50%.

On to `CCOC(=O)C(F)(F)CNC(=O)c1cc(NC(=O)[C@H]2[C@H](c3cc(Cl)cc(Cl)c3)C2(Cl)Cl)ccc1Cl` (relative stereo) [F2076, trans-Ethyl 3-(2-chloro-5-(2,2-dichloro-3-(3,5-dichlorophenyl)cyclopropane-1-carboxamido)benzamido)-2,2-difluoropropanoate], for which the pest or weed control at 50 µg/cm2 in test [2] (Cabbage Looper, Table ABC / ABC-DP rating, read-out: CL rating) lay within 50 to 100%.

With `O=C(Nc1cc(Cl)c(O)c(Cl)c1)c1cc(NC(=O)[C@H]2[C@H](c3cc(Cl)cc(Cl)c3)C2(Cl)Cl)ccc1Cl` (relative stereo) [F1360, trans-2-Chloro-5-(2,2-dichloro-3-(3,5-dichlorophenyl)cyclopropane-1-carboxamido)-N-(3,5-dichloro-4-hydroxyphenyl)benzamide], the pest or weed control at 50 µg/cm2 in test [2] (setting [4]) lay within 50 to 100%.

In the case of `CC(C)(C)OC(=O)N(C(=O)OC(C)(C)C)c1c(F)ccc(NC(=O)c2c(Cl)ccc(NC(=O)[C@H]3[C@H](c4ccc(F)c(Cl)c4)C3(Cl)Cl)c2Cl)c1F` (relative stereo) [F1107, trans-tert-Butyl-N-tert-butoxycarbonyl-N-[3-[[2,6-dichloro-3-[[2,2-dichloro-3-(3-chloro-4-fluorophenyl)cyclopropanecarbonyl]amino]benzoyl]amino]-2,6-difluoro-phenyl]carbamate], the pest or weed control at 50 µg/cm2 in test [2] (setting [4]) is 0 to 50%.

As for `Cc1c(F)c(NC(=O)c2cc(NC(=O)[C@H]3[C@H](c4ccc(F)c(C(F)(F)F)c4)C3(Cl)Cl)ccc2Cl)cc(N(C(=O)OC(C)(C)C)C(=O)OC(C)(C)C)c1F` [F1670, tert-Butyl N-tert-butoxycarbonyl-N-[5-[[2-chloro-5-[[(1R,3R)-2,2-dichloro-3-[4-fluoro-3-(trifluoromethyl)phenyl]cyclopropanecarbonyl]amino]benzoyl]amino]-2,4-difluoro-3-methyl-phenyl]carbamate], the pest or weed control at 50 µg/cm2 in test [1] (Beet Armyworm, rating class) lay in the range of 0 to 50%.

`COc1c(Cl)cc(NC(=O)[C@H]2[C@H](c3ccc(F)c(Cl)c3)C2(Cl)Cl)cc1C(=O)Nc1ccc(F)c(N(C(=O)OC(C)(C)C)C(=O)OC(C)(C)C)c1F` (relative stereo) [F1237, trans-tert-Butyl-N-tert-butoxycarbonyl-N-[3-[[3-chloro-5-[[2,2-dichloro-3-(3-chloro-4-fluorophenyl)cyclopropanecarbonyl]amino]-2-methoxybenzoyl]amino]-2,6-difluorophenyl]carbamate]: the pest or weed control at 50 µg/cm2 in test [1] (setting [3]) was in the range of 0 to 50%.

Regarding `CC(C)(C)OC(=O)N(C(=O)OC(C)(C)C)c1c(F)ccc(NC(=O)c2cc(NC(=O)[C@H]3[C@H](c4ccc(F)c(Cl)c4)C3(Cl)Cl)cc(Cl)c2F)c1F` (relative stereo) [F1198, trans-tert-Butyl-N-tert-butoxycarbonyl-N-[3-[[3-chloro-5-[[2,2-dichloro-3-(3-chloro-4-fluorophenyl)cyclopropanecarbonyl]amino]-2-fluorobenzoyl]amino]-2,6-difluorophenyl]carbamate], in test [2] (setting [4]), the pest or weed control at 50 µg/cm2 lay within 0 to 50%.

As to `CC(C)(C)OC(=O)N(C(=O)OC(C)(C)C)c1c(F)ccc(NC(=O)c2cc(NC(=O)[C@H]3[C@H](c4ccc(F)c(Cl)c4)C3(Cl)Cl)cc(F)c2Cl)c1F` (relative stereo) [F1155, trans-tert-Butyl-N-tert-butoxycarbonyl-N-[3-[[2-chloro-5-[[2,2-dichloro-3-(3-chloro-4-fluorophenyl)cyclopropanecarbonyl]amino]-3-fluorobenzoyl]amino]-2,6-difluorophenyl]carbamate], in test [1] (setting [3]), the pest or weed control at 50 µg/cm2 was 50 to 100%.
